Results from patent US11026423B2, “Herbicidal compositions and methods” (SePRO Corporation, priority 2013, dated 2021).

Columns and labels:
[1] = system: weeds; experiment: Example 12 UC Davis almond orchard: weed control; type: in vivo; details: 1 to 5 months after treatment, all treatment rates
Procedure: (§1) A field trial was conducted in northern California for weed control and safety in one peach orchand and two almond orchards. The herbicide applications were made between January and February when the tree crops were dormant.

[2] = system: yellow nutsedge; experiment: Example 6 Shafter almond orchard: yellow nutsedge control; type: in vivo, Cyperus esculentus L.
Procedure: (§2) Field trials were conducted in California to determine sweet almond (Prunus dulcis) tolerance to fluridone and efficacy of fluridone in an irrigated orchard environment. Trial locations included a two-year old almond stand in Kerman, Calif. and a six-year old stand in Shafter, Calif. The soil in both locations is classified as a sandy loam. Applications prior to emergence of weeds (PRE) of herbicides were made in the month of January in Kerman and in the month of January in Shafter. […] Rainfall (0.32 in (about 0.813 cm)) and irrigation (1.5 in (about 3.81 cm)) one day after PRE applications were used to incorporate herbicides into the soil at the Kerman and Shafter locations, respectively. Both sites were irrigated as needed during the growing season to avoid drought conditions. Visual evaluations of crop injury and weed control were made monthly on a 0 to 100% scale. Postemergent (POST) broadcast applications of a non-selective, contact herbicide was broadcast across all treatments in Kerman prior to the 90 days after treatment and 119 days after treatment (DAT) ratings. Thus, data from those ratings dates was not evaluated. No POST applications were made in Shafter.

[3] = system: Palmer amaranth; experiment: Example 10 dryland cotton field, Jackson, Tenn.: Palmer amaranth control; type: in vivo, Amaranthus palmeri; details: fluridone 0.1 to 0.5 lb/ac
Procedure: An experiment with cotton was conducted during the months of April to the month of June in Jackson, Tenn. Plots were arranged as a randomized complete block with four replicates. Plots were 6.3 ft by 30 ft (about 1.92 meteres by about 9.114 meters). The soil on the site was classified as a silt loam soil. […] The site received approximately four inches (about 10.16 cm) of rainfall in the first 35 days after treatment (DAT). Visually evaluations of Palmer amaranth control were made twice a month on a 0 to 100% scale.

[4] = system: spotted spurge (Euphorbia maculate); experiment: Example 6 Shafter almond orchard: spotted spurge control; type: in vivo; details: 211 DAT, fluridone 0.4 and 0.8 lb/ac
Procedure: as §2

[5] = system: sprangletop (Leptochloa sp.); experiment: Example 6 Shafter almond orchard: sprangletop control; type: in vivo; details: 211 DAT, three highest rates of fluridone
Procedure: as §2

[6] = system: weeds in walnut orchard; experiment: Example 11 walnut orchard field trial: weed efficacy; type: in vivo
Procedure: A field trial was performed in a dormant 4th year walnut orchard (Chandler variety) located near Stockton, Calif. The trial was initiated in December for weed efficacy studies and crop tolerance studies. Plots were about 8 feet by about 18 feet (about 2.43 meters by about 5.49 meters) with one tree per plot arranged in a randomized complete block design with three replications. Fluridone, flumioxazin, Roundup, and glufosinate ammonium were tested.

[7] = system: Palmer amaranth (Amaranthus palmeri); experiment: Example 9 greenhouse: preemergence Palmer amaranth control under varying irrigation; type: in vivo; details: fluridone 0.2 lb/ac, coarse sand soil, irrigation 0 to 1.0 inch
Procedure: An experiment was conducted beginning in the month of August in a greenhouse. The greenhouse was arranged as a randomized complete block with four replicates. A coarse sand soil was used to fill four inch diameter pots. […] Overhead irrigation occurred eight and 10 days after treatment, applying an additional 0.25 inch (abou 0.635 cm) of water to each pot. Palmer amaranth control was determined by counting seedlings in each pot weekly.

[8] = system: redmaids (Calandrinia sp.); experiment: Example 7 Kerman vineyard: redmaids control; type: in vivo; details: 58 DAT, fluridone 0.2, 0.4 and 0.8 lb/ac
Description: (§3) Trials were placed in grape vineyards located in Kerman and Kingsburg, Calif. The soil in both locations is classified as a sandy loam. Preemergent herbicide applications were made in the month of January in Kerman and in the month of March in Kingsburg. […] Additionally, indaziflam applied at 0.065 lb/ac was included at the Kingsburg site. […] Both sites were irrigated as needed during the growing season to avoid drought conditions. Visual evaluations of crop injury and weed control were made monthly on a 0 to 100% scale. Cultivation occurred in the row centers at the Kerman location following the 58 DAT evaluations, and therefore, the Kerman results following 58 DAT were not evaluated. No cultivation occurred in Kingsburg during the trial period.

[9] = system: hairy fleabane; experiment: Example 6 Shafter almond orchard: hairy fleabane control; type: in vivo, Conyza bonariensis; details: 211 DAT, fluridone 0.4 and 0.8 lb/ac
Procedure: as §2

[10] = system: yellow nutsedge (Cyperus esculentus L.); experiment: Example 6 Kerman almond orchard: yellow nutsedge control; type: in vivo; details: 184 DAT, 0.4 and 0.8 lb fluridone/ac
Procedure: as §2

[11] = system: hairy fleabane; experiment: Example 8 Elderwood orange orchard: hairy fleabane control; type: in vivo
Procedure: (§4) A field trial was conducted in California to evaluate tolerance of non-bearing “Cara Cara” orange (Citrus sinensis) to fluridone and the efficacy of fluridone in an irrigated orchard environment. The trial was initiated in the month of January in Elderwood, Calif. The soil on the trial site was classified as a clay. […] Rainfall (0.44 in. (about 1.12 cm)) that occurred in the first week following PRE application incorporated the herbicides into the soil. The site was irrigated as needed during the growing season to avoid drought conditions. Visual evaluations of crop injury and weed density were made on a 0 to 100% scale. Additionally, plant counts per plot of weed species present were conducted for each evaluation period.

[12] = system: witchgrass (Panicum capillare L.); experiment: Example 8 Elderwood orange orchard: witchgrass control; type: in vivo; details: 168 DAT, three highest fluridone rates; indaziflam
Procedure: as §4

[13] = system: hare barley, annual sowthistle, black medic, chickweed, and redstem filaree; experiment: Example 12 Arbuckle almond orchard: weed control; type: in vivo; details: approximately 1, 2 and 3 months after treatment
Procedure: as §1
Weed control and crop safety were evaluated at approximately 1, 2, and 3 months after treatment. Weed pressure was fairly heavy, and uniform over the trial site. Populations of hare barley, annual sowthistle, black medic, chickweed, and redstem filaree were recorded.

[14] = system: crabgrass (Digitaria spp.); experiment: Example 6 Kerman almond orchard: crabgrass control; type: in vivo; details: 184 DAT, 0.4 and 0.8 lb fluridone/ac
Procedure: as §2

[15] = system: weeds (total weed control); experiment: Example 10 irrigated walnut, Stockton, Calif.: total weed control; type: in vivo; details: fluridone 0.2 to 0.4 lb/ac
Procedure: An experiment with walnut was conducted during the months of December to the month of June the following year in Stockton, Calif. Plots were arranged as a randomized complete block with three replicates. Plots were 8 ft×8 ft (about 2.43 meters by meters)(1 tree/plot). The soil on the site is classified as a clay loam. […] The site received approximately four inches (about 10.16 cm) of rainfall in the first 35 DAT, and an additional 2.9 inches (about 7.366 cm) rainfall and 6.5 inches (about 16.51 cm) irrigation the next 124 days thereafter. Visually evaluations of weed control were made monthly on a 0 to 100% scale.

[16] = system: prostrate spurge (Euphorbia supine Raf.); experiment: Example 8 Elderwood orange orchard: prostrate spurge control; type: in vivo; details: 168 DAT, PRE
Procedure: as §4

[17] = system: 'Thompson' grape (Vitis vinifera); experiment: Example 7 field trials: grape tolerance; type: in vivo; details: PRE application, Kerman and Kingsburg
Description: as §3

[18] = system: "Cara Cara" orange (Citrus sinensis); experiment: Example 8 field trial: orange tolerance; type: in vivo; details: Elderwood, PRE application, trial period
[19] = system: cotton plants; experiment: Pot demonstration of safening in cotton (FIG. 4); type: in vivo; details: three cotton plants planted, flumioxazin only (FIG. 4)
Description: Flumioxazin is another herbicide member of the PPO-inhibitor class that is commonly applied pre-emergent to control weeds, and has the chemical name 2-[7-fluoro-3,4-dihydro-3-oxo-4-(2-propynyl)-2H-1,4-benzoxazin-6-yl]-4,5,6,7-tetrahydro-1H-isoindole-1,3(2H)-dione. In certain embodiments of the present invention, flumioxazin can be applied to soil at a rate of about 0.015 pounds per acre to about 0.25 pounds per acre. In other embodiments, flumioxazin can be applied to soil at a rate of about 0.03 pounds per acre to about 0.25 pounds per acre. In another embodiment, flumioxazin can be applied to soil at a rate of about […] to about 0.2 pounds per acre.

[20] = system: cotton plants; experiment: Example 3 growth chamber trial, pre-emergent application on cotton; type: in vivo
Procedure: 0.1 L conical assay tubes were planted with a cotton or soybean seed in a sample of sandy loam soil. Seven tubes were prepared for each herbicide application rate. Application of a herbicide composition was performed after planting the seed and prior to the plant's emergence from the soil (i.e., pre-emergent or PRE). Approximately 0.15 inches of water was applied to each pot four hours after application. […] The greenhouse was maintained at 26±5° C. during the day and 11±1° C. during the night.

[21] = system: sweet almond (Prunus dulcis); experiment: Example 6 field trials: almond tolerance; type: in vivo; details: Kerman, any PRE herbicide application
Procedure: as §2

[22] = system: cotton; experiment: May field trial: phytotoxicity to cotton; details: May planting field trial, pre-emergent, 1 and 9 weeks post treatment
Procedure: (§5) Cotton was planted in fields in May. The field was then over seeded with P. amaranth. […] Within 24 hours of application of the herbicide, 0.25 inches of rain was recorded. An additional planting of cotton, by hand, was conducted in August with multiple rates.

[23] = system: P. amaranth; experiment: Greenhouse trial: P. amaranth control across soil types and moisture conditions; type: in vivo, Amaranthus palmeri; details: low moisture conditions across some soil types
Description: In addition to these field trials, greenhouse studies were also undertaken. The greenhouse studies evaluated the use of fluridone, fomesafen, and the combination of fluridone and fomesafen as well as the affect of soil types, and moisture conditions. Four soil types were examined: a predominantly clay soil, a sandy loam soil, a loamy peat soil, and a sandy soil. The moisture conditions evaluated were at 0.2 inches of water, and 1.5 inches of water.

[24] = system: cotton; experiment: Greenhouse trial: cotton response across soil types and moisture conditions; type: in vivo
Description: In addition to these field trials, greenhouse studies were also undertaken. […] Four soil types were examined: a predominantly clay soil, a sandy loam soil, a loamy peat soil, and a sandy soil.

[25] = system: P. amaranth; experiment: May field trial: weed control in cotton field; type: in vivo, Amaranthus palmeri; details: May planting field trial, pre-emergent, 1 and 9 weeks post treatment
Procedure: as §5

1-methyl-3-phenyl-5-[3-(trifluromethyl)phenyl]-4(1H)-pyridone [fluridone]
weed control [1]: good weed control
yellow nutsedge control compared to 0.1 and 0.2 lb fluridone/ac ([2]; 211 DAT, fluridone 0.4 and 0.8 lb/ac): significantly greater control
yellow nutsedge control compared to flumioxazin ([2]; fluridone applied at every rate): significantly greater than flumioxazin
Palmer amaranth control [3]: good control of Palmer amaranth
spotted spurge control compared to 0.1 and 0.2 lb fluridone/ac [4]: significantly greater control
sprangletop control compared to flumioxazin [5]: significantly greater control than flumioxazin
weeds observed in plots ([6]; 129 DAT, lower rates): Some weeds were observed
weeds observed in plots ([6]; 159 DAT, fluridone applied at lower rates): lambsquarter, bindweed, spurge and knotweed were observed
preemergent Palmer amaranth control vs amount of irrigation [7]: increasing the amount of irrigation increases preemergent control
redmaids control greater than flumioxazin [8]: 13.5%
hairy fleabane control compared to 0.1 and 0.2 lb fluridone/ac [9]: significantly greater control
yellow nutsedge control compared to flumioxazin [10]: similar
hairy fleabane control [11]: Neither fluridone nor indaziflam effectively controlled
control of witchgrass [12]: 100%
control of all weeds present [13]: ~100%
crabgrass control greater than flumioxazin [14]: 10%
total weed control [15]: good total weed control

Cc1ccc2c(c1)[C@H](Nc1nc(N)nc(C(C)F)n1)[C@@H](C)C2 (mixture of isomers) [indaziflam, N-[(1R,2S)-2,3-dihydro-2,6-dimethyl-1H-inden-1-yl]-6-[(1RS)-1-fluoroethyl]-1,3,5-triazine-2,4-diamine]
prostrate spurge control [16]: 95%
hairy fleabane control [11]: Neither fluridone nor indaziflam effectively controlled
control of witchgrass [12]: 100%
phytotoxicity [17]: Phytotoxicity was not observed
phytotoxicity [18]: did not contribute to phytotoxicity

C#CCN1C(=O)COc2cc(F)c(N3C(=O)C4=C(CCCC4)C3=O)cc21 [flumioxazin, 2-[7-fluoro-3,4-dihydro-3-oxo-4-(2-propynyl)-2H-1,4-benzoxazin-6-yl]-4,5,6,7-tetrahydro-1H-isoindole-1,3(2H)-dione]
weeds observed in plots ([6]; 129 DAT, lower rates): Some weeds were observed
emergence of cotton plants from the soil [19]: only one emerged from the soil
phytotoxicity [17]: Phytotoxicity was not observed
crop stand (number of viable plants) ([20]; 0.05 lb/A flumioxazin, seven tubes): one surviving plants out of seven
growth stage / growth stunting ([20]; 26 days after treatment, flumioxazin 0.05 lb/A, scale 0-3): the most growth stunting
injury to cotton plants ([20]; application rates greater than 0.025 lb/A flumioxazin): significantly injured
cotyledons with excessive wrinkling and brown spotting due to herbicide injury ([20]; flumioxazin alone 0.05 lb/A, 26 days after treatment): all of the cotyledons show brown spotting
lethality to cotton plants ([20]; flumioxazin at the highest rates (FIG. 15)): fatal to cotton plants
phytotoxicity [21]: Phytotoxicity was not observed

CS(=O)(=O)NC(=O)c1cc(Oc2ccc(C(F)(F)F)cc2Cl)ccc1[N+](=O)[O-] [fomesafen, 5-[2-chloro-4-(trifluoromethyl)phenoxy]-N-(methylsulfonyl)-2-nitrobenzamide]
phytotoxicity [22]: no phytotoxicity was observed
P. amaranth control [23]: not able to provide complete P. amaranth control
growth of treated cotton plants ([24]; 4 weeks after planting (FIG. 3A, 3B)): stunting effect on cotton
stunting ([24]; less than ideal growing conditions, compared to fluridone and fluridone/fomesafen treatments): some stunting was observed
control of P. amaranth [25]: showed control of P. amaranth
